A short description of series [1]: Chemical stability (kinetics of chemical hydrolysis) in buffer solutions. Conditions: for half-life at 9.1 µM: read-out: t1/2, chemical stability (converted). It is filed as physicochemical. As to the method:
The chemical stability of (±)-1 was evaluated in buffer solutions at pH 1.3 and 7.4 (Table 1).
A 0.02 M phosphate buffer (PBS, pH 7.4) and a 0.02 M hydrochloric buffer (pH 1.3) containing 0.1% (v/v) Cremophor ELP, was used to evaluate chemical stabilities at physiological pHs. The reaction was initiated by adding 1 mL of 10^–4 M stock solution (in acetonitrile) of the compound to 10 mL of thermostated (37 ± 0.5 °C) buffer solution. At established time points, the samples (20 μL) were withdrawn and analyzed by HPLC. Pseudo-first-order rate constants (kobs) for the hydrolysis of the compounds were then calculated considering the slopes of the linear plots of log (% residual compound) against time. The analyses were run in triplicate, and the mean values of the rate constants were calculated.

The subject of series [2] is VEGF-A-stimulated human retinal endothelial cells (HRECs). Also noted: method as in PMID 27739690. Conditions: cited from earlier work.

Molecules are shown by their SMILES. Like-named read-outs stand apart in the source and are kept apart here.

Consider 1 compound from paper PMC8474110 (Journal of Medicinal Chemistry, 2021).

As for `CCCC(CCC)C(=O)OC(CCCN1CCC(O)(c2ccc(Cl)cc2)CC1)c1ccc(F)cc1` (racemic) [(±)-1], the “Kobs, chemical stability” value in series [1] (buffer pH 1.3, 37 °C) is listed as 0.007 ± 0.001 h^–1; in series [1] (buffer pH 7.4, 37 °C), 0.007 ± 0.001 h^–1. Also, the “time the racemate was stable” value in series [1] (buffer solutions at pH 1.3 and 7.4 (both environments)) is recorded as “about 4 days”. Besides, the half-life at 9.1 µM in series [1] (hydrochloric buffer, buffer pH 1.3, 37 °C) was 100 ± 3.1 h; in series [1] (phosphate buffer, buffer pH 7.4, 37 °C), 96.4 ± 1.6 h. Moreover, in series [2], the “reduction of cell migration and proliferation, times more than (±)-HP-mII” value is on record as 20 times. For the same compound, the “reduction of cell migration and proliferation, times more than VPA” value in series [2] is given as 120 times.
